Test results reported in PMC5817852 (The Open Medicinal Chemistry Journal, 2018).
Where two headings read alike, the source gives them in different places.

What was measured:
[1] = system: PC3 prostate cancer cell line; assay: qHTS cell viability screen (Cell Titer Glo), PC3; type: cell-based; settings: for CC50: PC3 prostate, 72 hours, cell viability Cell Titer Glo, read-out: CC50 PC3
[2] = system: HT29 colorectal carcinoma; assay: qHTS cell viability screen (Cell Titer Glo), HT29; type: cell-based
[3] = system: NALM16 cell line (acute lymphoblastic leukemia); assay: Additional cancer cell line panel, NALM16; type: cell-based, human; settings: confidence intervals in parentheses, NA: not active
[4] = system: BJ cells, normal human foreskin fibroblast cell line; assay: BJ cell cytotoxicity counter screen
From the text: (§1) Most analogs in the presented series are lipophilic while also containing a positively charged amine. Lipophilic basic amines can accumulate in cell membranes if their lipophilic atom groups form favorable non-polar contacts with lipid chains while their charged amine is interacting with fatty acid head groups. Such association with lipids can lead to cytotoxicity through membrane destabilization. Therefore, we evaluated a number of representative compounds against BJ cells, a normal human foreskin fibroblast cell line, where cytotoxicity was determined at 10 µM drug concentration, as described previously.
(§2) minimum locked at 0 and 100 respectively.
(§3) children with ALL in relapse.
(§4) foreskin fibroblast cell line (BJ).
(§5) Table 2. […] SSA: Sulindac sulfide

[5] = system: MDA-MB-231 breast cancer cell line; assay: qHTS cell viability screen (Cell Titer Glo), MDA-MB-231; type: cell-based
[6] = system: RAJI cells (Burkitt's leukaemia/lymphoma); assay: Additional cancer cell line panel, RAJI; type: cell-based; settings: confidence intervals in parentheses, NA: not active
[7] = system: REH cells (precursor B-cell ALL); assay: Additional cancer cell line panel, REH; type: cell-based, human; settings: confidence intervals in parentheses, NA: not active, read-out: EC50 REH
COX-2 = system: COX-2; parameters: method as in PMID 19470791; settings: cited from earlier work
COX-1 = system: COX-1; parameters: method as in PMID 19470791; settings: cited from earlier work
[8] = BJ cell cytotoxicity counter screen; settings: human, BJ cells (normal human foreskin fibroblast cell line)
From the text: as §1, §2, §3, §4, §5

[9] = system: Acute T cell leukemia Jurkat e6-1 cells (JURKT); assay: Additional cancer cell line panel, JURKT; type: cell-based; settings: confidence intervals in parentheses, NA: not active
[10] = system: Cell line 697 (ALL in relapse); assay: Additional cancer cell line panel, 697; type: cell-based, human; settings: confidence intervals in parentheses, NA: not active
From the text: as §1, §2, §3, §4, §5

[11] = read-out: EC50 BJ (cytotoxicity), BJ normal human foreskin fibroblasts, confidence intervals in parentheses
[12] = MDA-MB-231 breast, 96 hours, cell viability Cell Titer Glo, read-out: CC50 MDA-MB-231
[13] = Homo sapiens, HT-29, 72 h, HT29 colorectal carcinoma, 72 hours, cell viability Cell Titer Glo, read-out: CC50 HT29
[14] = Homo sapiens, MDA-MB-231, 96 h, MDA-MB-231 breast, 96 hours, cell viability Cell Titer Glo, read-out: CC50 MDA-MB-231

CSc1ccc(/C=C2/C(C)=C(CN(Cc3ccncc3)Cc3ccncc3)c3cc(F)ccc32)cc1 [Compound 49]
CC50 [1]: 12.7 ± 1.44 µM
CC50 [2]: 10.8 ± 1.84 µM
EC50 [3]: 0.051 µM
EC50 [4]: > 22.7 µM
CC50 [5]: 9.5 ± 2.14 µM

COc1cc(/C=C2/C(C)=C(CN(Cc3ccncc3)Cc3ccncc3)c3cc(F)ccc32)cc(OC)c1OC [Compound 56]
CC50 [1]: 9.09 ± 0.87 µM
EC50 [3]: 32 µM
EC50 [4]: > 22.7 µM
EC50 [6]: 58 µM
EC50 [7]: 32 µM

COc1cc(/C=C2/C(C)=C(CNC(=O)CN)c3cc(F)ccc32)cc(OC)c1OC [Compound 29]
CC50 [1]: 17.9 ± 2.08 µM
CC50 ([2]; HT29 colorectal carcinoma, 72 hours, cell viability Cell Titer Glo, read-out: CC50 HT29): 8.51 ± 1.7 µM
EC50 [3]: 230 µM
EC50 [4, 11]: > 22.7 µM
CC50 [5, 12]: 9.92 ± 2.13 µM

CSc1ccc(/C=C2/C(C)=C(CC(=O)NCCN(C)C)c3cc(F)ccc32)cc1 [SSA, Sulindac sulfide amide, reference compound]
CC50 ([1]; 72 h): 3.12 ± 0.15 µM
CC50 [2, 13]: 0.65 ± 0.03 µM
EC50 [4, 11]: > 7.57 µM
activity against COX-2 (COX-2): no activity
activity against COX-1 (COX-1): no activity
CC50 [5, 14]: 2.67 ± 0.08 µM

CSc1ccc(/C=C2/C(C)=C(CNC(=O)[C@@H]3CCCN3)c3cc(F)ccc32)cc1 [Compound 25]
CC50 ([1]; 72 h): 6.66 ± 0.42 µM
CC50 [2, 13]: 3.15 ± 0.17 µM
EC50 [8]: > 22.7 µM
EC50 ([7]; Homo sapiens, REH): 150 µM
CC50 [5, 14]: 4.35 ± 0.19 µM

COc1cc(/C=C2/C(C)=C(CNC(=O)[C@@H]3CCCN3)c3cc(F)ccc32)cc(OC)c1OC [Compound 33]
CC50 ([1]; 72 h): 11.9 ± 1.56 µM
CC50 [2, 13]: 5.67 ± 1.67 µM
EC50 [8]: > 22.7 µM
EC50 ([9]; Homo sapiens, Jurkat E6.1): 33 µM
melting point: 64 to 66 °C
EC50 ([7]; Homo sapiens, REH): 38 µM
CC50 [5, 14]: 8.2 ± 0.99 µM

COc1cc(/C=C2/C(C)=C(CNC(=O)[C@@H](N)CO)c3cc(F)ccc32)cc(OC)c1OC [Compound 30]
CC50 ([1]; 72 h): 26.5 ± 6.01 µM
CC50 [2, 13]: 11.1 ± 1.35 µM
EC50 [8]: > 22.7 µM
melting point: 118 to 120 °C
EC50 ([7]; Homo sapiens, REH): 53 µM
CC50 [5, 14]: 11.9 ± 2.27 µM

CSc1ccc(/C=C2/C(C)=C(CNC(=O)[C@@H](N)C(C)C)c3cc(F)ccc32)cc1 [Compound 24]
CC50 ([1]; 72 h): < 10 µM
CC50 [1]: 5.16 ± 0.5 µM
EC50 ([10]; Homo sapiens): 16 µM
EC50 [8]: 16.7 µM
EC50 ([6]; Homo sapiens, Raji): 39 µM
EC50 ([9]; Homo sapiens, Jurkat E6.1): 15 µM
melting point: 133 to 135 °C
EC50 ([7]; Homo sapiens, REH): 14 µM
CC50 [5, 14]: < 10 µM
CC50 [5, 12]: 6.81 ± 0.63 µM

CSc1ccc(/C=C2/C(C)=C(CNC(=O)[C@@H](N)CC(C)C)c3cc(F)ccc32)cc1 [Compound 23]
CC50 ([1]; 72 h): < 10 µM
CC50 [1]: 6.21 ± 0.49 µM
EC50 ([3]; Homo sapiens, NALM16): 30 µM
EC50 [8]: 16.4 µM
EC50 ([7]; Homo sapiens, REH): 16 µM
CC50 [5, 14]: < 10 µM
CC50 [5, 12]: 6.7 ± 0.71 µM

COc1cc(/C=C2/C(C)=C(CNC(=O)[C@@H](N)C(C)C)c3cc(F)ccc32)cc(OC)c1OC [Compound 32]
CC50 ([1]; 72 h): < 10 µM
CC50 [1]: 8.11 ± 0.41 µM
EC50 [8]: > 22.7 µM
EC50 ([6]; Homo sapiens, Raji): 110 µM
EC50 ([7]; Homo sapiens, REH): 21 µM
CC50 [5, 14]: < 10 µM
CC50 [5, 12]: 7.3 ± 0.73 µM

3,4,5-trimethoxybenzylidene-3-indenylmethyl-2-phenylacetamide [Compound 26]
increased anticancer activity in comparison with SSA, prostate cancer cells ([1]; versus SSA): 6-7 fold
increased anticancer activity in comparison with SSA, colon cancer cells ([2]; versus SSA): 6-7 fold
EC50 [3]: 8.1 µM
EC50 [10]: 15 µM
EC50 [4, 11]: > 22.7 µM
EC50 [6]: 8.3 µM
EC50 [9]: 11 µM
EC50 [7]: 19 µM
increased anticancer activity in comparison with SSA, breast cancer cells ([5]; versus SSA): 27 fold
